SMILES strings stand for the structures.

T1 sequence (P23945 18-695): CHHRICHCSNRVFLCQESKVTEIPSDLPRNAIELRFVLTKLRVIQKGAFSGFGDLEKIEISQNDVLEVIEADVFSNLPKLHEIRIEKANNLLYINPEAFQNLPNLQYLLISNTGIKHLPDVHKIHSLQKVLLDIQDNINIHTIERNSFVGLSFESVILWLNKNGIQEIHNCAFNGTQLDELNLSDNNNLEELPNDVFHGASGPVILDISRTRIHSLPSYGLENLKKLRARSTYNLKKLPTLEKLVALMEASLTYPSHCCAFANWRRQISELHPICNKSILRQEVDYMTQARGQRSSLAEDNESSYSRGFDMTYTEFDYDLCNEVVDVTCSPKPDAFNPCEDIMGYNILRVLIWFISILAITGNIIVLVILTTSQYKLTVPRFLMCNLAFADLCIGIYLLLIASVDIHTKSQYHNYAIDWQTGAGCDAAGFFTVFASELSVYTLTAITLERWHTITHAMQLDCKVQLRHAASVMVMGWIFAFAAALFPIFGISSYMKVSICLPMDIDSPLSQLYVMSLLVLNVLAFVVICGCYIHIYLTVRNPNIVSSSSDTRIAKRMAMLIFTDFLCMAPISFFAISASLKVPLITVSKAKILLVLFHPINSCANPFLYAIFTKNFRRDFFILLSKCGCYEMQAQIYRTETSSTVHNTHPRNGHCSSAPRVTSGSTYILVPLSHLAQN
T1 sequence (P01215 25-116 partner): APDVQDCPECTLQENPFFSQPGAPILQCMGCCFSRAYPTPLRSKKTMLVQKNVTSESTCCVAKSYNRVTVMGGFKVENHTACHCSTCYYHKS
T1 sequence (P01225 19-129 partner): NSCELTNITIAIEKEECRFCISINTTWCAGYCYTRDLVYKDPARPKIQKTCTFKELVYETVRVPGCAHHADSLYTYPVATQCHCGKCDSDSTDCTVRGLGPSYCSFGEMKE

The first assay concerns the target T1, FSHR (Homo sapiens, UniProt P23945).
T1 construct: expressed in transfected cells; host or cells: CHO (Cho-FSHR-LUC-1-1-43)
Nature of the assay: EC50 of cyclic AMP production in CHO FSHR cells + EC20 FSH (Assay A). It counts as cell-based. The note with it: 1 h; 5 μM; effect relative to maximum response of the FSH standard; Table 1. The procedure: Example 10: EC50 of Cyclic AMP Production in CHO FSHR Cells+EC20 FSH (Assay A)
2500 Cho-FSHR-LUC-1-1-43 cells were plated per well in 5 μl of phenol red free DMEM/F12+1% FBS. Cells were plated in 384 well, solid white low volume plates (Greiner 784075) by Multidrop. Cells were assayed by adding 100 μl of 2×EC20 FSH/IBMX in DMEM/F12+0.1% BSA) by Multidrop to 2 μl of test compound stamped in 384 well plates (compounds are diluted 1:50). The final FSH concentration was […], and the final IBMX concentration was 200 μM. The compound plate map was as follows: Column 1: 2 μl of DMSO; Column 2: 2 μl of DMSO; Columns 3-12 and 13-24: 2 μl of test compound, diluted 1:4 in 100% DMSO, or 2 μl of FSH, diluted 1:4 in DMEM/F12+0.1% BSA. The starting concentration for FSH was 50 nM (final concentration was 0.5 nM). […] 5 μl of compound+EC20 FSH mixture were transferred to cell plates (1:2 dilution into 5 μl of cell media) The plates were incubated at 37° C. for 1 h. 10 μl of mixed HTRF (CisBio #62AM4PEC) reagents were added per well and incubated at room temperature for 1 h. The plates were read on Envision using the cAMP HTRF—low volume 384 well protocol. The readout was the calculated fluorescence ratio (665 nm/620 nm). Values given in percent (%) indicate the percental effect (response) at a certain concentration of agonist relative to the maximum response of the FSH standard.
Take `Cc1ccccc1N1CCN(c2ccc(C(=O)NCCCN3CCCC3=O)cc2NC(=O)c2cc(C)c(C)o2)CC1` [Compound 138]: the activation at 5 µM came to 41%.

`Cc1ccccc1N1CCN(c2ccc(C(=O)NCCCN3CCCC3=O)cc2NC(=O)c2cnoc2C(C)C)CC1` [Compound 145]: the activation at 5 µM stood at 16%.

Turning to `Cc1ccccc1N1CCN(c2ccc(C(=O)NCCCn3ccc4ccccc43)cc2NC(=O)c2ccco2)CC1` [Compound 149], the activation at 5 µM was found to be 24%.

In the case of `Cc1ccccc1N1CCN(c2ccc(C(=O)NCCCN3CCCC3=O)cc2NC(=O)c2cccc(C(N)=O)c2)CC1` [Compound 163], the activation at 5 µM was determined as 8%.

For `COc1ccccc1N1CCN(c2ccc(C(=O)NCCCN3CCCC3=O)cc2NC(=O)c2ccco2)CC1` [Compound 166], the activation at 5 µM was 20%.

Turning to `Cc1ccc(C(=O)Nc2cc(C(=O)NCc3cccc(Br)c3)ccc2N2CCN(c3ccccc3C)CC2)o1` [Compound 170], the activation at 5 µM is 32%.

Take `Cc1ccc(C(=O)Nc2cc(C(=O)NCCCCCCNC(=O)OC(C)(C)C)ccc2N2CCN(c3ccccc3C)CC2)o1` [Compound 196]: the activation at 5 µM amounted to 22%.

Still in this assay, the particulars now being: CHO FSHR cells + EC20 FSH; Table 1; read-out: Assay A EC50 of cyclic AMP production.
A word on the EC50: it is the concentration needed to bring the measured effect to its halfway point. `Cc1ccccc1N1CCN(c2ccc(C(=O)NCCN(C)C(=O)c3ccc4c(c3)OCO4)cc2NC(=O)c2ccco2)CC1` [Compound 134, Benzo[1,3]dioxole-5-carboxylic acid {2-[3-[(furan-2-carbonyl)-amino]-4-(4-o-tolyl-piperazin-1-yl)-benzoylamino]-ethyl}-methyl-amide]: the EC50 fell in the range of 1000 to 10000 nM.

With `CCc1ccc(C(=O)Nc2cc(C(=O)NCCCN3CCCC3=O)ccc2N2CCN(c3ccccc3C)CC2)o1` [Compound 140], the EC50 lay within 100 to 1000 nM.

On to `COc1ccc(C(=O)Nc2cc(C(=O)NCCCN3CCCC3=O)ccc2N2CCN(c3ccccc3C)CC2)o1` [Compound 141], for which the EC50 was in the range of 100 to 1000 nM.

Regarding `Cc1ccc(C(=O)Nc2cc(C(=O)N[C@@H]3CCN(C(=O)OC(C)(C)C)C3)ccc2N2CCN(c3ccccc3C)CC2)o1` [Compound 142, (R)-3-[3-[(5-Methyl-furan-2-carbonyl)-amino]-4-(4-o-tolyl-piperazin-1-yl)-benzoylamino]-pyrrolidine-1-carboxylic acid tert-butyl ester], the EC50 fell in the range of 1000 to 10000 nM.

Turning to `Cc1ccccc1N1CCN(c2ccc(C(=O)NCCCN3CCCC3=O)cc2NC(=O)c2cccc(O)c2)CC1` [Compound 146], the concentration for a half-maximal effect (EC50) is above 10000 nM.

As to `Cc1ccccc1N1CCN(c2ccc(C(=O)NCCCn3cccc3)cc2NC(=O)c2ccco2)CC1` [Compound 148], the EC50 is 100 to 1000 nM.

With `Cc1ccccc1N1CCN(c2ccc(C(=O)NCC(=O)NC3CCCC3)cc2NC(=O)c2ccco2)CC1` [Compound 151], the EC50 lay within 100 to 1000 nM.

Consider `Cc1ccccc1N1CCN(c2ccc(C(=O)NCCCc3ccncc3)cc2NC(=O)c2ccco2)CC1` [Compound 153], for which the EC50 lay within 100 to 1000 nM.

For the compound `Cc1ccccc1N1CCN(c2ccc(C(=O)NCC3(CN4CCCC4)CC3)cc2NC(=O)c2ccco2)CC1` [Compound 154], the concentration giving a half-maximal response (EC50) was 1000 to 10000 nM.

For `Cc1ccccc1N1CCN(c2ccc(C(=O)NCCCN3C(=O)CN(C)C3=O)cc2NC(=O)c2ccco2)CC1` [Compound 156], the EC50 is 100 to 1000 nM.

On to `Cc1ccccc1N1CCN(c2ccc(C(=O)NCCC3C[C@H]4CC[C@@H]3C4)cc2NC(=O)c2ccco2)CC1` (stereo partly drawn) [Compound 157], for which the EC50 was 100 to 1000 nM.

As for `Cc1ccccc1N1CCN(c2ccc(C(=O)NCCCN3CCCC3=O)cc2NC(=O)c2ncccc2F)CC1` [Compound 160], the 50% effective concentration (EC50) fell in the range of 1000 to 10000 nM.

For the compound `Cc1ccccc1N1CCN(c2ccc(C(=O)NCCCN3CCCC3=O)cc2NC(=O)c2ccc(F)cc2F)CC1` [Compound 161], the EC50 was in the range of 100 to 1000 nM.

For the compound `Cc1ccc(C(=O)Nc2cc(C(=O)NCCCN3CCCC3=O)ccc2N2CCN(c3ccccc3C)CC2)s1` [Compound 162], the EC50 is 100 to 1000 nM.

For the compound `CC(=O)Nc1ccc(C(=O)Nc2cc(C(=O)NCCCN3CCCC3=O)ccc2N2CCN(c3ccccc3C)CC2)o1` [Compound 164], the EC50 lay in the range of 1000 to 10000 nM.

Turning to `Cc1ccc(C(=O)Nc2cc(C(=O)NCCCN3CCCC3=O)ccc2N2CCC(c3ccccc3C)CC2)o1` [Compound 165, 5-Methyl-furan-2-carboxylic acid [5-[3-(2-oxo-pyrrolidin-1-yl)-propylcarbamoyl]-2-(4-o-tolyl-piperidin-1-yl)-phenyl]-amide], the EC50 is above 10000 nM.

On to `Cc1ccc(C(=O)Nc2cc(C(=O)NCCCN3CCCC3=O)ccc2N2CCN(c3ccccc3)CC2)o1` [Compound 167, 5-Methyl-furan-2-carboxylic acid [5-[3-(2-oxo-pyrrolidin-1-yl)-propylcarbamoyl]-2-(4-phenyl-piperazin-1-yl)-phenyl]-amide], for which the EC50 is 1000 to 10000 nM.

`COc1ccc(CNC(=O)c2ccc(N3CCN(c4ccccc4C)CC3)c(NC(=O)c3ccc(C)o3)c2)cc1OC` [Compound 171, 5-Methyl-furan-2-carboxylic acid [5-(3,4-dimethoxy-benzylcarbamoyl)-2-(4-o-tolyl-piperazin-1-yl)-phenyl]-amide]: the EC50 lay within 1000 to 10000 nM.

As for `COc1ccc(-c2c[nH]nc2CNC(=O)c2ccc(N3CCN(c4ccccc4C)CC3)c(NC(=O)c3ccc(C)o3)c2)cc1` [Compound 172, 5-Methyl-furan-2-carboxylic acid [5-{[4-(4-methoxy-phenyl)-1H-pyrazol-3-ylmethyl]-carbamoyl}-2-(4-o-tolyl-piperazin-1-yl)-phenyl]-amide], the concentration giving a half-maximal response (EC50) is 1000 to 10000 nM.

Regarding `COc1ccccc1N1CCN(c2ccc(C(=O)NCCCN3CCCC3=O)cc2NC(=O)c2ccc(C)o2)CC1` [Compound 173, 5-Methyl-furan-2-carboxylic acid {2-[4-(2-methoxy-phenyl)-piperazin-1-yl]-5-[3-(2-oxo-pyrrolidin-1-yl)-propylcarbamoyl]-phenyl}-amide], the concentration giving a half-maximal response (EC50) fell in the range of 1000 to 10000 nM.

In the case of `Cc1ccc(C(=O)Nc2cc(C(=O)NCCN3CCS(=O)(=O)CC3)ccc2N2CCN(c3ccccc3C)CC2)o1` [Compound 174, 5-Methyl-furan-2-carboxylic acid [5-[2-(1,1-dioxo-1 lambda*6*-thiomorpholin-4-yl)ethylcarbamoyl]-2-(4-o-tolyl-piperazin-1-yl)-phenyl]-amide], the concentration giving a half-maximal response (EC50) was 1000 to 10000 nM.

Turning to `Cc1ccc(C(=O)Nc2cc(C(=O)NC3CCN(C(=O)OC(C)(C)C)CC3)ccc2N2CCN(c3ccccc3C)CC2)o1` [Compound 175, 4-[3-[(5-methyl-furan-2-carbonyl)-amino]-4-(4-o-tolyl-piperazin-1-yl)-benzoylamino]-piperidine-1-carboxylic acid tert-butyl ester], the EC50 lay in the range of 1000 to 10000 nM.

In the case of `Cc1ccccc1N1CCN(c2ccc(C(=O)NCCCN3CCCC3=O)cc2NC(=O)C(C)(C)C)CC1` [Compound 177, 3-(2,2-Dimethyl-propionylamino)-N-[3-(2-oxo-pyrrolidin-1-yl)-propyl]-4-(4-o-tolyl-piperazin-1-yl)-benzamide], the EC50 was in the range of 1000 to 10000 nM.

For `Cc1ccccc1N1CCN(c2ccc(C(=O)NCCCN3CCCC3=O)cc2NC(=O)c2nc(Br)cs2)CC1` [Compound 178], the EC50 was 1000 to 10000 nM.

As for `Cc1ccccc1N1CCN(c2ccc(C(=O)NCCCN3CCCC3=O)cc2NC(=O)c2ncsc2C)CC1` [Compound 179], the concentration for a half-maximal effect (EC50) is 100 to 1000 nM.

Regarding `Cc1ccccc1N1CCN(c2ccc(C(=O)NCCC(C)N3CCCC3)cc2NC(=O)c2ccco2)CC1` (stereo not drawn) [Compound 181], the EC50 was 1000 to 10000 nM.

As for `Cc1ccc(C(=O)Nc2cc(C(=O)NCCc3c[nH]cn3)ccc2N2CCN(c3ccccc3C)CC2)o1` [Compound 185, 5-Methyl-furan-2-carboxylic acid [5-[2-(1H-imidazol-4-yl)-ethylcarbamoyl]-2-(4-o-tolyl-piperazin-1-yl)-phenyl]-amide], the EC50 was in the range of 1000 to 10000 nM.

For the compound `Cc1cccc(C(=O)Nc2cc(C(=O)NCCCN3CCCC3=O)ccc2N2CCN(c3ccccc3C)CC2)n1` [Compound 186, 6-Methyl-pyridine-2-carboxylic acid [5-[3-(2-oxo-pyrrolidin-1-yl)-propylcarbamoyl]-2-(4-o-tolyl-piperazin-1-yl)-phenyl]-amide], the EC50 lay within 1000 to 10000 nM.

Turning to `Cc1ccccc1N1CCN(c2ccc(C(=O)N[C@H]3O[C@@H](CO)[C@@H]4OC(C)(C)O[C@@H]43)cc2NC(=O)c2ccco2)CC1` [Compound 191], the EC50 lay in the range of 100 to 1000 nM.

On to `Cc1ccccc1N1CCN(c2ccc(C(=O)NCCCN)cc2NC(=O)c2ccco2)CC1` [Compound 192], for which the EC50 fell in the range of 100 to 1000 nM.

On to `Cc1ccc(C(=O)Nc2cc(C(=O)NCCCN3CCCC3=O)ccc2N2CCCN(c3ccccc3C)CC2)o1` [Compound 194, 5-Methyl-furan-2-carboxylic acid [5-[3-(2-oxo-pyrrolidin-1-yl)-propylcarbamoyl]-2-(4-o-tolyl-[1,4]diazepan-1-yl)-phenyl]-amide], for which the half-maximal effective concentration (EC50) lay in the range of 1000 to 10000 nM.

As to `Cc1ccc(C(=O)Nc2cc(C(=O)NC3CC3)ccc2N2CCN(c3ccccc3C)CC2)o1` [Compound 195, 5-Methyl-furan-2-carboxylic acid [5-cyclopropylcarbamoyl-2-(4-o-tolyl-piperazin-1-yl)-phenyl]amide], the EC50 lay within 1000 to 10000 nM.

(Values after patent publication US9938262B2, “Benzamides” (Merck Patent GmbH, priority 2011, dated 2018).)
